Data as given in the NIST ThermoML archive (doi:10.1007/s10765-017-2256-0).
Values joined by “and” are separate entries in the source; they are usually repeats but may differ in a detail not shown here. Equal values may be shown once.

Settings: for mass density: 407.69 K, Fluid (supercritical or subcritical phases), Bellows volumetry

CC(C)C [2-methylpropane]
Settings | mass density
3627.5 kPa | 203.1 kg/m3
3629.3 kPa | 205.78 kg/m3
3631.2 kPa | 208.58 kg/m3
3632.8 kPa | 211.59 kg/m3
3634 kPa | 214.88 kg/m3
3634.8 kPa | 218.47 kg/m3
3635.3 kPa | 222.42 kg/m3
3635.4 kPa | 223.5 kg/m3
3635.7 kPa | 225.57 kg/m3 and 226.64 kg/m3
3636.3 kPa | 228.77 kg/m3
3637 kPa | 230.86 kg/m3
3638.4 kPa | 235.26 kg/m3
3639.6 kPa | 239.96 kg/m3
3641.1 kPa | 244.93 kg/m3

Settings | Critical temperature [K]
Liquid, Visual observation in a stirred cell | 407.69
